Values belong to the molecule of their own block, whether it stands above or below them.
System: GST-Braf kinase domain and biotinylated E3 substrate adapter (VHL/EloB/EloC complex or CRBN318-425)
Assay: Dimerization assay (AlphaScreen/AlphaLisa), RAF/E3 dimerization
Type: binding
Settings: relative value, compounds 4 fold serial dilutions from 20 μM

Compound: Cc1ccc(NC(=O)c2cccc(C(F)(F)F)c2)cc1-c1cnc(OCCCCc2cn(CCCCCC(=O)Nc3cccc4c3C(=O)N(C3CCC(=O)NC3=O)C4=O)nn2)c(N2CCOCC2)c1 (stereo not drawn) [Compound 2.013, N-(3-(6-(4-(1-(6-((2-(2,6-dioxopiperidin-3-yl)-1,3-dioxoisoindolin-4-yl)amino)-6-oxohexyl)-1H-1,2,3-triazol-4-yl)butoxy)-5-morpholinopyridin-3-yl)-4-methylphenyl)-3-(trifluoromethyl)benzamide]
RAF/E3 Dimerization (Table 17): ++ (25% > RAF/E3 Dimerization ≥ 5%)

Compound: Cc1ncc(NC(=O)c2cccc(C(F)(F)F)c2)cc1-c1cnc(OCCCCCCc2cn(CCCCCC(=O)Nc3cccc4c3C(=O)N(C3CCC(=O)NC3=O)C4=O)nn2)c(N2CCOCC2)c1 (stereo not drawn) [Compound 1.006, N-(6′-((6-(1-(6-((2-(2,6-dioxopiperidin-3-yl)-1,3-dioxoisoindolin-4-yl)amino)-6-oxohexyl)-1H-1,2,3-triazol-4-yl)hexyl)oxy)-2-methyl-5′-morpholino-[3,3′-bipyridin]-5-yl)-3-(trifluoromethyl)benzamide]
RAF/E3 Dimerization (Table 15): + (5% > RAF/E3 Dimerization)

Compound: Cc1ncsc1-c1ccc([C@H](C)NC(=O)[C@@H]2C[C@@H](O)CN2C(=O)[C@H](NC(=O)CCOCCOCCOCCOCCOCCOCCNC(=O)c2cc(Oc3ccc(NC(=O)Nc4ccc(Cl)c(C(F)(F)F)c4)cc3)ccn2)C(C)(C)C)cc1 [Compound 1.016, 4-(4-(3-(4-chloro-3-(trifluoromethyl)phenyl)ureido)phenoxy)-N—((R)-23-((2S,4R)-4-hydroxy-2-(((S)-1-(4-(4-methylthiazol-5-yl)phenyl)ethyl)carbamoyl)pyrrolidine-1-carbonyl)-24,24-dimethyl-21-oxo-3,6,9,12,15,18-hexaoxa-22-azapentacosyl)picolinamide]
RAF/E3 Dimerization (Table 17): + (5% > RAF/E3 Dimerization)

Compound: Cc1ncc(NC(=O)c2cccc(C(F)(F)F)c2)cc1-c1cnc(OCCOCCOCCOCC(=O)NCCCCCCc2cccc3c2CN(C2CCC(=O)NC2=O)C3=O)c(N2CCOCC2)c1 (stereo not drawn) [Compound 2.018, N-(6′-((18-(2-(2,6-dioxopiperidin-3-yl)-1-oxoisoindolin-4-yl)-11-oxo-3,6,9-trioxa-12-azaoctadecyl)oxy)-2-methyl-5′-morpholino-[3,3′-bipyridin]-5-yl)-3-(trifluoromethyl)benzamide]
RAF/E3 Dimerization (Table 17): ++++ (75% > RAF/E3 Dimerization ≥ 50%)

Compound: Cc1ncc(NC(=O)c2cccc(C(F)(F)F)c2)cc1-c1cnc(OCCCCCc2cn(CCCCCC(=O)Nc3cccc4c3C(=O)N(C3CCC(=O)NC3=O)C4=O)nn2)c(N2CCOCC2)c1 (stereo not drawn) [Compound 1.005, N-(6′-((5-(1-(6-((2-(2,6-dioxopiperidin-3-yl)-1,3-dioxoisoindolin-4-yl)amino)-6-oxohexyl)-1H-1,2,3-triazol-4-yl)pentyl)oxy)-2-methyl-5′-morpholino-[3,3′-bipyridin]-5-yl)-3-(trifluoromethyl)benzamide]
RAF/E3 Dimerization (Table 15): + (5% > RAF/E3 Dimerization)

Compound: Cc1ncc(NC(=O)c2cccc(C(F)(F)F)c2)cc1-c1cnc(OCCOCCOCC(=O)NCCCCCc2cccc3c2CN(C2CCC(=O)NC2=O)C3=O)c(N2CCOCC2)c1 (stereo not drawn) [Compound 2.017, N-(6′-(2-(2-(2-((5-(2-(2,6-dioxopiperidin-3-yl)-1-oxoisoindolin-4-yl)pentyl)amino)-2-oxoethoxy)ethoxy)ethoxy)-2-methyl-5′-morpholino-[3,3′-bipyridin]-5-yl)-3-(trifluoromethyl)benzamide]
RAF/E3 Dimerization (Table 17): ++++ (75% > RAF/E3 Dimerization ≥ 50%)

Results, then the molecule that gave them:

RAF/E3 Dimerization (Table 17): ++ (25% > RAF/E3 Dimerization ≥ 5%)
Compound: O=C1CCC(N2Cc3c(CCCOCCOCCNC(=O)c4cc(Oc5ccc(NC(=O)Nc6ccc(Cl)c(C(F)(F)F)c6)cc5)ccn4)cccc3C2=O)C(=O)N1 (stereo not drawn) [Compound 2.033, 4-(4-(3-(4-chloro-3-(trifluoromethyl)phenyl)ureido)phenoxy)-N-(2-(2-(3-(2-(2,6-dioxopiperidin-3-yl)-1-oxoisoindolin-4-yl)propoxy)ethoxy)ethyl)picolinamide]

RAF/E3 Dimerization (Table 17): ++ (25% > RAF/E3 Dimerization ≥ 5%)
Compound: Cc1ncc(NC(=O)c2cccc(C(F)(F)F)c2)cc1-c1cnc(OCCOCc2cn(CCCCCC(=O)Nc3cccc4c3C(=O)N(C3CCC(=O)NC3=O)C4=O)nn2)c(N2CCOCC2)c1 (stereo not drawn) [Compound 2.022, N-(6′-(2-((1-(6-((2-(2,6-dioxopiperidin-3-yl)-1,3-dioxoisoindolin-4-yl)amino)-6-oxohexyl)-1H-1,2,3-triazol-4-yl)methoxy)ethoxy)-2-methyl-5′-morpholino-[3,3′-bipyridin]-5-yl)-3-(trifluoromethyl)benzamide]

RAF/E3 Dimerization (Table 17): ++ (25% > RAF/E3 Dimerization ≥ 5%)
Compound: O=C1CCC(N2C(=O)c3cccc(CCCOCCOCCNC(=O)c4cc(Oc5ccc(NC(=O)Nc6ccc(Cl)c(C(F)(F)F)c6)cc5)ccn4)c3C2=O)C(=O)N1 (stereo not drawn) [Compound 2.030, 4-(4-(3-(4-chloro-3-(trifluoromethyl)phenyl)ureido)phenoxy)-N-(2-(2-(3-(2-(2,6-dioxopiperidin-3-yl)-1,3-dioxoisoindolin-4-yl)propoxy)ethoxy)ethyl)picolinamide]

RAF/E3 Dimerization (Table 17): +++++ (RAF/E3 Dimerization ≥75%)
Compound: Cc1ncsc1-c1ccc([C@H](C)NC(=O)[C@@H]2C[C@@H](O)CN2C(=O)[C@H](NC(=O)COCCOCCOCCOCCCCCCn2cc(-c3ccnc(NCCC#N)n3)c(-c3cnc4[nH]ccc4c3)n2)C(C)(C)C)cc1 [Compound 2.045, (2S,4R)-1-((R)-2-(tert-butyl)-21-(4-(2-((2-cyanoethyl)amino)pyrimidin-4-yl)-3-(1H-pyrrolo[2,3-b]pyridin-5-yl)-H-pyrazol-1-yl)-4-oxo-6,9,12,15-tetraoxa-3-azahenicosan-1-oyl)-4-hydroxy-N—((S)-1-(4-(4-methylthiazol-5-yl)phenyl)ethyl)pyrrolidine-2-carboxamide]

RAF/E3 Dimerization (Table 17): +++ (50% > RAF/E3 Dimerization ≥ 25)
Compound: Cc1ncc(NC(=O)c2cccc(C(F)(F)F)c2)cc1-c1cnc(OCCOCCOCCOCC(=O)NCCOCCCc2cccc3c2CN(C2CCC(=O)NC2=O)C3=O)c(N2CCOCC2)c1 (stereo not drawn) [Compound 2.020, N-(6′-((18-(2-(2,6-dioxopiperidin-3-yl)-1-oxoisoindolin-4-yl)-11-oxo-3,6,9,15-tetraoxa-12-azaoctadecyl)oxy)-2-methyl-5′-morpholino-[3,3′-bipyridin]-5-yl)-3-(trifluoromethyl)-benzamide]

RAF/E3 Dimerization (Table 17): +++ (50% > RAF/E3 Dimerization ≥ 25)
Compound: Cc1ncsc1-c1ccc([C@H](C)NC(=O)[C@@H]2C[C@@H](O)CN2C(=O)[C@H](NC(=O)COCCOCCNC(=O)CCNc2nccc(-c3cn(CC(F)F)nc3-c3cnc4[nH]ccc4c3)n2)C(C)(C)C)cc1 [Compound 2.046, (2S,4R)-1-((R)-2-(tert-butyl)-15-((4-(1-(2,2-difluoroethyl)-3-(1H-pyrrolo[2,3-b]pyridin-5-yl)-1H-pyrazol-4-yl)pyrimidin-2-yl)amino)-4,13-dioxo-6,9-dioxa-3,12-diazapentadecan-1-oyl)-4-hydroxy-N—((S)-1-(4-(4-methylthiazol-5-yl)phenyl)ethyl)pyrrolidine-2-carboxamide]

Reference: US10787443B2, “RAF-degrading conjugate compounds” (ZAMBONI CHEM SOLUTIONS INC., priority 2017, dated 2020)
